According to ChEMBL document CHEMBL1909046, “DrugMatrix in vitro pharmacology data”:

Legend:
[1] = DRUGMATRIX: beta-Lactamase enzyme inhibition (substrate: Nitrocefin); parameters: species or system Bacillus cereus; conditions: Not Active = under 50% inhibition at 10 µM
[2] = biological target: T1, 3-hydroxy-3-methylglutaryl-coenzyme A reductase (Homo sapiens, UniProt P04035); parameters: species or system Escherichia coli;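 note: enzyme inhibition assay of HMG-CoA reductase using radiolabeled [14C]HMG-CoA as substrate; in other assays of this panel Not Active means under 50% inhibition at 10 µM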
T1 sequence (P04035 whole entry): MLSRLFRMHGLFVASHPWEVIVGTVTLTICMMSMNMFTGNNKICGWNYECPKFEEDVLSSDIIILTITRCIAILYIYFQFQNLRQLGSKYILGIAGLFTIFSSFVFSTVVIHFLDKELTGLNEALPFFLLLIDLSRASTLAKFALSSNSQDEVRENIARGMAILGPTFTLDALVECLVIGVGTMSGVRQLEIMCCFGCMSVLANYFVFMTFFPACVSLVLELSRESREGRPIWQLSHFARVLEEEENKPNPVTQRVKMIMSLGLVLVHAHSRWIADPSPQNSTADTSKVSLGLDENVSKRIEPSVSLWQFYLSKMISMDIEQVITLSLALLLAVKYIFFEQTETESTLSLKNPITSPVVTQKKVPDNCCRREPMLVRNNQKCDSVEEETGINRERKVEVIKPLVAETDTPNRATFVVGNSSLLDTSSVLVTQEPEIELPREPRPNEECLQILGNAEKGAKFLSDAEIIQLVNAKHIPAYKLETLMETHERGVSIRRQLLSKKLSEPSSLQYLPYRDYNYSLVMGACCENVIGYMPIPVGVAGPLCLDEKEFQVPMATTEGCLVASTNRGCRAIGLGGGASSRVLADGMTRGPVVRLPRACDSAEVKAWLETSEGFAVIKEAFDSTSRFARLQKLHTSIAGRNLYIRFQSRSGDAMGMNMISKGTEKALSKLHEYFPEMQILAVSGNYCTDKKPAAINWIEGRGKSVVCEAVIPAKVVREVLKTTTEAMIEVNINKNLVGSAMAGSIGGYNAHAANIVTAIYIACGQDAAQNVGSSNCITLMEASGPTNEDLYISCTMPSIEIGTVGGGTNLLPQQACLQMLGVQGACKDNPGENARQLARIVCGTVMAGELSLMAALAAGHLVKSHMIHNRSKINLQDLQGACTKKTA

[3] = DRUGMATRIX: Leukotriene, BLT (LTB4) radioligand binding (ligand: [3H]LTB4); type: cell membranes, Membrane; conditions: u-937; Not Active = under 50% inhibition at 10 µM
[4] = DRUGMATRIX: ATPase, Na+/K+ enzyme inhibition (substrate: ATP); type: tissue-based, Sus scrofa, Heart; conditions: Not Active = under 50% inhibition at 10 µM
[5] = biological target: Kappa-type opioid receptor (Homo sapiens, UniProt P41145); experiment: DRUGMATRIX: Opiate kappa (OP2, KOP) radioligand binding (ligand: [3H] Diprenorphine); type: cell membranes, HEK293, Membrane; conditions: Not Active = under 50% inhibition at 10 µM
Interstitial collagenase = biological target: T2, Interstitial collagenase (Homo sapiens, UniProt P03956); experiment: biochemical; type: tissue-based, Rheumatoid synovial fibroblasts;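 note: MMP-1 enzyme inhibition assay using a peptide substrate; in other assays of this panel Not Active means under 50% inhibition at 10 µM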
T2 sequence (P03956 whole entry): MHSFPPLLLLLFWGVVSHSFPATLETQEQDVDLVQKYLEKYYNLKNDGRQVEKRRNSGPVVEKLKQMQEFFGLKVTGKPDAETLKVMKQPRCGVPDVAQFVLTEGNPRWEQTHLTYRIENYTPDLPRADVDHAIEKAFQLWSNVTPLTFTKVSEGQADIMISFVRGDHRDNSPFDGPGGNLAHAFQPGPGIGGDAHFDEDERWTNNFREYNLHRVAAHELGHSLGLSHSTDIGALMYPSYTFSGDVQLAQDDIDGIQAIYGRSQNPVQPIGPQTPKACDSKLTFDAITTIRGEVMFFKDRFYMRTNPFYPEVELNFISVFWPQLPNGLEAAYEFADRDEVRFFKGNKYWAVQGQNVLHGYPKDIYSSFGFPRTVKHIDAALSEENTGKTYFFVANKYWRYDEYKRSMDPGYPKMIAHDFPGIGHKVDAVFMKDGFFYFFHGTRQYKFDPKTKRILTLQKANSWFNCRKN

[6] = DRUGMATRIX: Nicotinic Acetylcholine radioligand binding (ligand: [125I] Epibatidine); type: cell membranes, Membrane; conditions: imr-32; Not Active = under 50% inhibition at 10 µM

Kappa-type opioid receptor, sequence (P41145 whole entry): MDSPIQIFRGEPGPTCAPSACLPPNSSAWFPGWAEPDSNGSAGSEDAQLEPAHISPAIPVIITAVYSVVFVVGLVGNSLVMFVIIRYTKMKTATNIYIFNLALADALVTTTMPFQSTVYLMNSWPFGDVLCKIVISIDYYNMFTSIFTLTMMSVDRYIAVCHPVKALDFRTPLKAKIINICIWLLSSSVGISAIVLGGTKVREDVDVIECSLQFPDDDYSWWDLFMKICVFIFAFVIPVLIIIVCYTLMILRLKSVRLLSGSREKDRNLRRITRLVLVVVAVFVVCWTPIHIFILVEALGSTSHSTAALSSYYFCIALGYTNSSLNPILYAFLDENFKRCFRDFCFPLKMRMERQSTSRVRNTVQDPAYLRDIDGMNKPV

Compound | IC50 [1] | Ki [1] | IC50 [2] | IC50 [3] | Ki [3] | IC50 [4] | Ki [4] | IC50 ([5]; hek293) | IC50 (Interstitial collagenase) | IC50 [6] | Ki [6] | Ki [5] | IC50 ([5]; read-out: IC50) | IC50 ([4]; read-out: IC50) | Ki [2] | Ki (Interstitial collagenase)
CCOc1nc2cccc(C(=O)O)c2n1Cc1ccc(-c2ccccc2-c2nnn[nH]2)cc1 | Not Active | Not Active | Not Active | Not Active | Not Active | Not Active | Not Active | Not Active | Not Active | Not Active | Not Active | – | – | – | – | –
O=C(O)CCCc1cccs1 | Not Active | Not Active | Not Active | Not Active | Not Active | Not Active | Not Active | Not Active | Not Active | Not Active | Not Active | – | – | – | – | –
COc1ccccc1N | Not Active | Not Active | Not Active | Not Active | Not Active | Not Active | Not Active | Not Active | Not Active | Not Active | Not Active | – | – | – | – | –
O=C(c1ccccc1F)N1CCC(Cc2ccccc2)CC1 | Not Active | Not Active | Not Active | Not Active | Not Active | Not Active | Not Active | Not Active | Not Active | Not Active | Not Active | – | – | – | – | –
Cc1c(O)cccc1C(=O)N[C@@H](CSc1ccccc1)[C@H](O)CN1C[C@H]2CCCC[C@H]2C[C@H]1C(=O)NC(C)(C)C | Not Active | Not Active | Not Active | Not Active | Not Active | Not Active | Not Active | – | Not Active | Not Active | Not Active | 14.4 µM | 36 µM | – | – | –
CC(O)COC[C@H]1O[C@@H]2O[C@H]3[C@H](O)[C@@H](O)[C@@H](O[C@H]4[C@H](O)[C@@H](O)[C@@H](O[C@H]5[C@H](O)[C@@H](O)[C@@H](O[C@H]6[C@H](O)[C@@H](O)[C@@H](O[C@H]7[C@H](O)[C@@H](O)[C@@H](O[C@H]8[C@H](O)[C@@H](O)[C@@H](O[C@H]1[C@H](O)[C@H]2O)O[C@@H]8COCC(C)O)O[C@@H]7COCC(C)O)O[C@@H]6COCC(C)O)O[C@@H]5COCC(C)O)O[C@@H]4COCC(C)O)O[C@@H]3COCC(C)O (stereo partly drawn) [2-HYDROXYPROPYL-BETA-CYCLODEXTRIN] | Not Active | Not Active | Not Active | Not Active | Not Active | Not Active | Not Active | Not Active | Not Active | Not Active | Not Active | – | – | – | – | –
NC(=O)c1cccc(N)c1 [3-AMINOBENZAMIDE] | Not Active | Not Active | Not Active | Not Active | Not Active | Not Active | Not Active | Not Active | Not Active | Not Active | Not Active | – | – | – | – | –
C[C@H]1O[C@H](O[C@H]2[C@H](O)[C@@H](O)[C@@H](O[C@H]3[C@H](O)[C@@H](O)C(O)O[C@@H]3CO)O[C@@H]2CO)[C@H](O)[C@@H](O)[C@@H]1N[C@H]1C=C(CO)[C@@H](O)[C@H](O)[C@H]1O (stereo not given in full) [ACARBOSE] | Not Active | Not Active | Not Active | Not Active | Not Active | Not Active | Not Active | Not Active | Not Active | Not Active | Not Active | – | – | – | – | –
CC[C@H]1[C@@H]2C[C@H]3[C@@H]4N(C)c5ccccc5[C@]45C[C@@H]([C@@H]2[C@H]5O)N3[C@@H]1O [AJMALINE] | Not Active | Not Active | Not Active | Not Active | Not Active | Not Active | Not Active | Not Active | Not Active | Not Active | Not Active | – | – | – | – | –
NC12CC3CC(CC(C3)C1)C2 [AMANTADINE] | Not Active | Not Active | Not Active | Not Active | Not Active | Not Active | Not Active | Not Active | Not Active | Not Active | Not Active | – | – | – | – | –
NCCCNCCSP(=O)(O)O [AMIFOSTINE] | Not Active | Not Active | Not Active | Not Active | Not Active | Not Active | Not Active | Not Active | Not Active | Not Active | Not Active | – | – | – | – | –
CC(C)c1c(C(=O)Nc2ccccc2)c(-c2ccccc2)c(-c2ccc(F)cc2)n1CC[C@@H](O)C[C@@H](O)CC(=O)O [ATORVASTATIN] | Not Active | Not Active | – | Not Active | Not Active | Not Active | Not Active | Not Active | Not Active | Not Active | Not Active | – | – | – | – | –
C[N+](C)(C)C[C@H](O)CC(=O)[O-] [LEVOCARNITINE] | Not Active | Not Active | Not Active | Not Active | Not Active | Not Active | Not Active | – | Not Active | Not Active | Not Active | – | – | – | – | –
C[C@]12CC[C@H]3[C@@H](CCC4=CC(=O)CC[C@@H]43)[C@@H]1CC[C@@H]2O [NANDROLONE] | Not Active | Not Active | Not Active | Not Active | Not Active | Not Active | Not Active | – | Not Active | Not Active | Not Active | – | – | – | – | –
CN(C)C(=O)Oc1cccc([N+](C)(C)C)c1.[Br-] [NEOSTIGMINE BROMIDE] | Not Active | Not Active | Not Active | Not Active | Not Active | Not Active | Not Active | – | Not Active | Not Active | Not Active | – | – | – | – | –
C[C@@H]1O[C@@H](O[C@H]2C[C@@H](O)[C@]3(CO)[C@H]4[C@H](O)C[C@]5(C)[C@@H](C6=CC(=O)OC6)CC[C@]5(O)[C@@H]4CC[C@]3(O)C2)[C@H](O)[C@H](O)[C@H]1O [OUABAIN] | Not Active | Not Active | Not Active | Not Active | Not Active | – | – | – | Not Active | Not Active | Not Active | – | – | 0.678 µM | – | –
NNCCc1ccccc1 [PHENELZINE] | Not Active | Not Active | Not Active | Not Active | Not Active | Not Active | Not Active | – | Not Active | Not Active | Not Active | – | – | – | – | –
COBALTOUS CHLORIDE | Not Active | Not Active | Not Active | Not Active | Not Active | Not Active | Not Active | – | Not Active | Not Active | Not Active | – | – | – | Not Active | Not Active
COLISTIN | Not Active | Not Active | Not Active | Not Active | Not Active | Not Active | Not Active | – | Not Active | Not Active | Not Active | – | – | – | Not Active | Not Active
